Patent US12187703B2, “Crystalline forms of N-(3-(2-(2-hydroxyethoxy)-6-morpholinopyridin-4-yl)-4-methvlphenyl)-2 (trifluoromethyl)isonicotinamide as Raf inhibitors for the treatment of cancer” (NOVARTIS AG, priority 2019, dated 2025)
Values joined by “and” are separate entries in the source; they are usually repeats but may differ in a detail not shown here. Equal entries are not always repeated. Where two headings read alike, the source gives them in different places.

Tests used:
Format in all cases: physicochemical
[1] = Bulk density and flowability with ring shear tester
Procedure: (§1) Pilot manufacture batches producing Modification HA and Form A on kilogram scale were compared for their respective bulk powder properties. The particle size distribution (PSD) was determined according to the corresponding method for release. Other measurements were performed using technical methods known in the art or as described herein.

[2] = Stability testing, solid state bulk (UPLC, color, XRPD, TGA); set-up: key: A: No change of color; details: solid state
Procedure: (§2) X-ray powder diffraction (XRPD) analysis of all polymorph forms was performed using a Bruker D8 Discover x-ray diffractometer with XYZ stage. Measurements were taken at about 40 kV and 1 mA under the following conditions:
(§3) Crystalline Monohydrate Form HA was analysed by thermogravimetric analysis (TGA) using a Discovery Thermogravimetric Analysis Calorimeter from TA instruments under the following conditions (see Table 6).
(§4) No notable change in chemical purity, nor change in XRPD, nor change in TGA, was observed.

[3] = Particle size distribution by Fraunhofer light diffraction
Procedure: as §1
A few drops of the dispersing aid were added to an appropriate amount of test substance. The mixture was mixed intensively, e.g. on a vortex mixer, in order to wet the substance thoroughly and to form a smooth and homogeneous paste. The resultant paste was diluted with the dispersion liquid to a final volume of 3-6 ml and the dispersion mixed again. The cumulative volume distribution was determined using a laser light diffraction instrument as stated above. The parameters could be adjusted accordingly so that the test dispersion is representative, homogeneous and well dispersed.
Particle sizes were determined at the undersize values of 10%, 50% and 90% (×10, ×50, ×90), and additional values in question, from the cumulative volume distribution.

[4] = Solubility at 25° C., 24 hours slurry; details: for Solubility / solubility at 24 h: approx. at 25° C., target concentration 10 mg/mL; for Final pH / XRPD of solid after equilibration: 25° C.; for solubility at 24 h: 25 °C, thermodynamic from solid, read-out: Solubility
Procedure: A sample was weighed in a glass vial and solvent added to make a slurry followed by stirring or shaking at 25° C. for 24 hours. The amount of sample and solvents depends on the target concentration, e.g. if the target concentration is 10 mg/mL, the weight of the sample should be 10 mg and the amount of solvent volume should be 1 mL. The solid and liquid are separated by centrifugation at 13000 rpm for 2 minutes with 0.2 μm membrane. The filtrate is then used for the solubility test after appropriate dilution. The diluent is from the UPLC method. The solids obtained after equilibration were analyzed by XRPD after being dried at 40° C. under vacuum for 2 hours. DSC/TGA analysis was conducted for selected samples.

[5] = Behaviour under compression, grinding and granulation with water
[6] = Stability testing, solid state bulk (UPLC, color, XRPD, TGA); details: for Degradation Products (DP), UPLC / TGA (%) Weight loss at 175° C. / XRPD: solid state
Procedure: as §2, §3, §4

[7] = Hygroscopicity, storage and solubility conclusions
Description: The term “non-hygroscopic” as used herein refers to a compound showing a water uptake of at most 2 w-% in the sorption cycle when measured with GMS (or DVS) at a relative humidity in the range of from 0 to 95% RH and a temperature of (25.0±0.1) ° C., based on the weight of the compound. Non-hygroscopic is preferably up to 0.2%.

[8] = 1 week/80° C., glass vials with screw caps
[9] = 1 week/80° C./75% RH, open bottles
[10] = 2 weeks/50° C., glass vials with screw caps
[11] = 2 weeks/50° C./75% RH, open bottles
[12] = 2 weeks/80° C., glass vials with screw caps
[13] = 2 weeks/80° C./75% RH, open bottles
[14] = 3 months/40° C./75% RH, open bottles
[15] = 4 weeks/50° C., glass vials with screw caps
[16] = 4 weeks/50° C./75% RH, open bottles
[17] = Xenon light (approx. 1200 kLuxh)
[18] = pilot manufacture batch, kilogram scale

Cc1ccc(NC(=O)c2ccnc(C(F)(F)F)c2)cc1-c1cc(OCCO)nc(N2CCOCC2)c1 [Monohydrate HA, N-(3-(2-(2-hydroxyethoxy)-6-morpholinopyridin-4-yl)-4-methylphenyl)-2-(trifluoromethyl)isonicotinamide]
Factor of bulk density, Monohydrate HA versus Modification A ([1]; 696 kg/m^3 versus 71 kg/m^3): ~10
Bulk flowability with ring shear tester, rating in words ([1]; under 1250 Pa normal stress): “free flowing”
Technical measurement of bulk flowability with ring shear tester ([1]; under 1250 Pa normal stress): 13.7
Technical measurement of bulk density with ring shear tester ([1]; under no consolidation stress): 696 kg/m^3
Color (CL) [2, 8]: A
Color (CL) [2, 9]: A
Color (CL) [2, 10]: A
Color (CL) [2, 11]: A
Color (CL) [2, 12]: A
Color (CL) [2, 13]: A
Color (CL) [2, 14]: A
Color (CL) [2, 15]: A
Color (CL) [2, 16]: A
Color (CL) [2, 17]: A
Factor of diameter X10, Monohydrate HA vs. Modification A ([3]; 131 μm vs. 2 μm): > 10
Diameter X of PSD measured during release, X50 [3, 18]: X50: 277 μm
Diameter X of PSD measured during release, X90 [3, 18]: X90: 414 μm
Solubility ([4]; FaSSIF (pH 6.5), LOQ = 0.002517 mg/mL): LOQ
Final pH ([4]; FaSSIF, pH 6.5): 6.44
XRPD of solid after equilibration ([4]; FaSSIF, pH 6.5): No change
solubility at 24 h ([4]; FeSSIF, pH 5.8, fessif, FeSSIF (pH 5.8), LOQ = 0.002517 mg/mL): 0.0032 mg/mL
Final pH ([4]; FeSSIF, pH 5.8): 5.69
XRPD of solid after equilibration ([4]; FeSSIF, pH 5.8): No change
Final pH ([4]; SGF (pH 2)): 2.07
XRPD of solid after equilibration ([4]; SGF (pH 2)): No change
solubility at 24 h ([4]; SGF, pH 2, simulated gastric fluid, SGF (pH 2), LOQ = 0.002517 mg/mL): 0.0022 mg/mL
Final pH ([4]; Water): 7.22
XRPD of solid after equilibration ([4]; Water): No change
Solubility ([4]; Water, LOQ = 0.002517 mg/mL): LOQ
solubility at 24 h ([4]; acetonitrile, organic solvent or mixture, Acetonitrile): > 10 mg/mL
solubility at 24 h ([4]; dichloromethane, organic solvent or mixture, Dichloromethane): > 10 mg/mL
solubility at 24 h ([4]; ethanol abs., organic solvent or mixture, Ethanol abs.): > 10 mg/mL
solubility at 24 h ([4]; ethyl acetate, organic solvent or mixture, Ethyl acetate): > 10 mg/mL
solubility at 24 h ([4]; methanol, organic solvent or mixture, Methanol): > 10 mg/mL
solubility at 24 h ([4]; octanol, organic solvent or mixture, Octanol): > 10 mg/mL
Final pH ([4]; pH 1 (0.1N HCl)): 1.06
XRPD of solid after equilibration ([4]; pH 1 (0.1N HCl)): No change
Solubility ([4]; pH 1 (0.1N HCl), LOQ = 0.002517 mg/mL): LOQ
Final pH ([4]; pH 2 (0.01N HCl)): 2.12
XRPD of solid after equilibration ([4]; pH 2 (0.01N HCl)): No change
Solubility ([4]; pH 2 (0.01N HCl), LOQ = 0.002517 mg/mL): LOQ
Final pH ([4]; pH 4.7 acetate buffer): 4.73
XRPD of solid after equilibration ([4]; pH 4.7 acetate buffer): No change
Solubility ([4]; pH 4.7 acetate buffer, LOQ = 0.002517 mg/mL): LOQ
Final pH ([4]; pH 6.8 phosphate buffer): 6.74
XRPD of solid after equilibration ([4]; pH 6.8 phosphate buffer): No change
Solubility ([4]; pH 6.8 phosphate buffer, LOQ = 0.002517 mg/mL): LOQ
Final pH ([4]; pH 9.0 borate buffer): 8.88
XRPD of solid after equilibration ([4]; pH 9.0 borate buffer): No change
Solubility ([4]; pH 9.0 borate buffer, LOQ = 0.002517 mg/mL): LOQ
Stability upon compression, grinding and wet granulation with water [5]: stable upon compression, grinding and wet granulation with water
Stability upon light exposure ([6]; 1200 kLuxh for 12 h): stable upon light exposure
Degradation Products (DP), UPLC [6, 8]: 0.27%
TGA (%) Weight loss at 175° C. [6, 8]: 3.60% and 3.56%
XRPD [6, 8]: No change
Degradation Products (DP), UPLC [6, 9]: 0.30% and 0.26%
TGA (%) Weight loss at 175° C. [6, 9]: 3.76% and 3.86%
XRPD [6, 9]: No change
Degradation Products (DP), UPLC [6, 10]: 0.29% and 0.33%
TGA (%) Weight loss at 175° C. [6, 10]: 3.76% and 3.89%
XRPD [6, 10]: No change
Degradation Products (DP), UPLC [6, 11]: 0.27% and 0.25%
TGA (%) Weight loss at 175° C. [6, 11]: 3.66% and 3.65%
XRPD [6, 11]: No change
Degradation Products (DP), UPLC [6, 12]: 0.29%
TGA (%) Weight loss at 175° C. [6, 12]: 3.67% and 3.76%
XRPD [6, 12]: No change
Degradation Products (DP), UPLC [6, 13]: 0.26% and 0.28%
TGA (%) Weight loss at 175° C. [6, 13]: 3.60% and 3.66%
XRPD [6, 13]: No change
Degradation Products (DP), UPLC [6, 14]: 0.53% and 0.30%
TGA (%) Weight loss at 175° C. [6, 14]: 3.55% and 3.60%
XRPD [6, 14]: No change
Degradation Products (DP), UPLC [6, 15]: 0.28% and 0.27%
TGA (%) Weight loss at 175° C. [6, 15]: 3.75% and 3.63%
XRPD [6, 15]: No change
Degradation Products (DP), UPLC [6, 16]: 0.30% and 0.27%
TGA (%) Weight loss at 175° C. [6, 16]: 3.78% and 3.69%
XRPD [6, 16]: No change
Degradation Products (DP), UPLC [6, 17]: 0.36% and 0.30%
TGA (%) Weight loss at 175° C. [6, 17]: 3.76% and 3.90%
XRPD [6, 17]: No change
Stability in bulk ([6]; up to 80° C. over an extended period of time, no notable change in chemical purity, XRPD, TGA): highly stable in bulk
Solubility, overall rating [7]: adequate solubility
Stability when stored in bulk quantities [7]: stable when stored in bulk quantities
Hygroscopicity ([7]; non-hygroscopic defined as water uptake at most 2 w-%, 0 to 95% RH, 25° C. (GMS/DVS)): non-hygroscopic
